In ChEMBL document CHEMBL5370554, “Discovery of a first-in-class Aurora A covalent inhibitor for the treatment of triple negative breast cancer” (Eur J Med Chem, 2023):

Tests used:
HeLa = assay: Antiproliferative activity against human HeLa cells assessed as inhibition of cell proliferation incubated for 48 hrs by CCK-8 assay; format: functional, cell-based
MDA-MB-231 [1] = assay: Antiproliferative activity against human MDA-MB-231 cells assessed as inhibition of cell proliferation incubated for 48 hrs by CCK-8 assay; format: functional, cell-based; settings: MDA-MB-231, 48 h
Aurora kinase A = target: T1, Aurora kinase A (Homo sapiens, UniProt O14965); assay: Inhibition of recombinant human Aurora A (1 to 403 residues) expressed in Escherichia coli using FAM-labeled peptide as substrate preincubated for 10 mins followed by substrate addition and measured after 20 mins in presence of ATP by HTRF assay
T1 sequence (O14965 whole entry): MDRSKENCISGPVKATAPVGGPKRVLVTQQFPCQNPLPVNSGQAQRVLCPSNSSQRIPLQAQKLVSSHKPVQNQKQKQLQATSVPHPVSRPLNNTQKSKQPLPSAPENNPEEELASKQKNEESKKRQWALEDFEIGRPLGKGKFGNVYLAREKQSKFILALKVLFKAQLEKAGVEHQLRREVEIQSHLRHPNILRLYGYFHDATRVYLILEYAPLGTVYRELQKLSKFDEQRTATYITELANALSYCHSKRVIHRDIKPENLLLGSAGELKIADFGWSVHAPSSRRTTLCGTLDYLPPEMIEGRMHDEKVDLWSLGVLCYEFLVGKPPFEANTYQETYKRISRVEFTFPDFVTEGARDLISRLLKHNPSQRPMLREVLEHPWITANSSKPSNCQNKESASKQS

SJSA-1 = assay: Antiproliferative activity against human SJSA-1 cells assessed as inhibition of cell proliferation incubated for 48 hrs by CCK-8 assay; format: functional, cell-based; settings: SJSA-1, 48 h
A549 = assay: Antiproliferative activity against human A549 cells assessed as inhibition of cell proliferation incubated for 48 hrs by CCK-8 assay; format: functional, cell-based; settings: A549, 48 h
[2] = Cytotoxicity against human L02 cells assessed as inhibition of cell proliferation incubated for 48 hrs by CCK-8 assay; format: toxicity, cell-based
[3] = Toxicity in BALB/c nude mouse xenografted with human MDA-MB-231 cells assessed as body weight change at 30 mg/kg,ip every 2days for 20 days; format: organism-based; settings: in vivo, 480 h, time 20 day
MDA-MB-231 [4] = assay: Antitumor activity against human MDA-MB-231 cells xenografted in BALB/c nude mouse assessed as tumor growth inhibition at 30 mg/kg,ip every 2days for 20 days; format: functional; settings: MDA-MB-231, 480 h, time 20 day, read-out: TGI

| SMILES | IC50 (HeLa) [µM] | IC50 (MDA-MB-231 [1]) [µM] | IC50 (Aurora kinase A) [µM] | IC50 (SJSA-1) [µM] | IC50 (A549) [µM] | IC50 at 48 h [2] [µM] | Activity [3] | inhibition in vivo at 30 mg/kg (MDA-MB-231 [4]) [%] |
| --- | --- | --- | --- | --- | --- | --- | --- | --- |
| Cc1cc(Nc2nc(-c3ccc(OS(=O)(=O)F)cc3)nc3cc(N4CCN(C)CC4)ccc23)n[nH]1 | 4.87 | 4.34 | 0.025 | 23.1 | 1.15 | – | – | – |
| C=CC(=O)Nc1ccc(-c2nc(Nc3cc(C)[nH]n3)c3ccc(N4CCOCC4)cc3n2)cc1 | 5.51 | 2.66 | 0.0027 | 14.8 | 0.26 | 43.2 | – | – |
| C=CC(=O)Nc1cccc(-c2nc(Nc3cc(C)[nH]n3)c3ccc(N4CCOCC4)cc3n2)c1 | 2.23 | 5.9 | 0.0017 | 12.5 | 0.85 | – | – | – |
| C=CC(=O)Nc1cc(-c2nc(Nc3cc(C)[nH]n3)c3ccc(N4CCN(C)CC4)cc3n2)ccc1C | 9.13 | 1.66 | 0.0011 | 23.6 | 0.31 | 34.2 | – | – |
| Cc1cc(Nc2nc(-c3ccc(O)cc3)nc3cc(N4CCN(C)CC4)ccc23)n[nH]1 | 9.68 | 1.34 | 0.0025 | 17.4 | 4.74 | – | – | – |
| CCC(=O)Nc1ccc(-c2nc(Nc3cc(C)[nH]n3)c3ccc(N4CCN(C)CC4)cc3n2)cc1 | 17.9 | 2.2 | 0.005 | 28.6 | 1.18 | 24.7 | – | – |
| Cc1cc(Nc2nc(-c3cccc(N)c3)nc3cc(N4CCN(C)CC4)ccc23)n[nH]1 | 6.77 | 1.75 | 0.0021 | 3.67 | 2.06 | – | – | – |
| Cc1cc(Nc2nc(-c3cccc(O)c3)nc3cc(N4CCN(C)CC4)ccc23)n[nH]1 | 6.8 | 1.49 | 0.002 | 10.7 | 2.15 | – | – | – |
| Cc1cc(Nc2nc(-c3ccc(N)cc3)nc3cc(N4CCN(C)CC4)ccc23)n[nH]1 | 4.88 | 0.64 | 0.0031 | 2.82 | 4.12 | – | – | – |
| Cc1cc(Nc2nc(-c3ccc(N)cc3)nc3cc(N4CCOCC4)ccc23)n[nH]1 | 7.3 | 4.39 | – | 6.54 | 1.64 | – | – | – |
| Cc1cc(Nc2cc(N3CCN(C)CC3)nc(/C=C/c3ccccc3)n2)n[nH]1 [ENMD-2076] | 9.02 | 5.21 | – | 56.7 | 2.65 | 42.6 | Non-Toxic | 30.9 |
| Cc1cc(Nc2nc(-c3ccccc3)nc3cc(N4CCN(C)CC4)ccc23)n[nH]1 | 5.5 | 1.44 | – | 18.8 | 1.44 | 2.74 | – | – |
| Cc1cc(Nc2nc(-c3cccc(N)c3)nc3cc(N4CCOCC4)ccc23)n[nH]1 | 7.52 | 6.96 | – | 12.5 | 1.77 | – | – | – |
| C=CC(=O)Nc1cccc(-c2nc(Nc3cc(C)[nH]n3)c3ccc(N4CCN(C)CC4)cc3n2)c1 | 4.22 | 2.6 | 0.0015 | 6.8 | 3.27 | – | – | – |
| Cc1cc(Nc2nc(-c3ccccc3O)nc3cc(N4CCN(C)CC4)ccc23)n[nH]1 | 3.8 | 2.43 | 0.0055 | 11.6 | 2.69 | – | – | – |
| Cc1cc(Nc2nc(-c3ccccc3N)nc3cc(N4CCN(C)CC4)ccc23)n[nH]1 | 8.3 | 0.76 | 0.011 | 2.66 | 1.13 | – | – | – |
| C=CC(=O)Nc1ccccc1-c1nc(Nc2cc(C)[nH]n2)c2ccc(N3CCN(C)CC3)cc2n1 | 41.2 | 13.4 | 0.045 | 13.9 | 19.7 | – | – | – |
